Molecules are shown by their SMILES.

IC50 and Kd data for one compound are collected here from patent US20230227428A1 (Anaxis Pharma Pty Ltd, priority 2020, published 2023).

The subject of one test is U937 cells. As to the kind of experiment: Counter screen: cell viability of U937 cells treated with compound without the TSQ cocktail (off-target effect). The settings on record: Homo sapiens, U-937, compound in DMSO without the TSQ cocktail, cell viability by CelltiterGlo, read-out: Off-target effect (IC50 cell-based assay). As for the experimental part:
(§1) Cell Line ID: U937 human histiocytic leukemia cell line.
(§2) The cellular assay was carried out according to the following steps: • 1. Each well was prepared by sequential addition of: • a. DMSO (control; columns 1-2 and 23-24) or compound in DMSO—addition was performed using acoustic transfer of nl volumes of stock compound to give final test concentrations of 36, 12, 4, 1.3, 0.44, 0.148, 0.049, 0.016, 0.005 and 0.002 μM. All wells were backfilled with DMSO to a final total volume in the well of 100 nl. • b. Following compound/DMSO addition in step (a), 40 μL of cell suspension (5×10^5 cells/mL) was added to provide a final cell concentration of 20,000 cells per well, and • c. Following cell addition in step (b), 10 μL of 5×TSQ cocktail (except to positive controls; […]) was added to each well. • 2. After 48 hours, plate was removed from the 37° C. incubator and equilibrated to room temperature for 45 minutes. • 3. 15 μL of room temperature CellTitre-Glo2™ (Promega™) was added to each well. • 4. Shook plates for 2 minutes (˜600 rpm) and incubated at room temperature for 15 minutes to allow signal to stabilise. • 5. Read luminescence readout on a plate reader.
(§3) Curve fitting: 10-point titration curves are fitted with the 4-parameter logistic nonlinear regression model and the IC50 reported is the inflection point of the curve
Counter screen: In parallel, all compounds were tested for their ability to affect cell viability. The same U937 cells were treated with compound in DMSO without the TSQ cocktail. This counter screen enabled evaluation of off-target effects. In this case, cell viability was measured by CelltiterGlo.

In a further test the target is T1, RIP3 (Homo sapiens, UniProt Q9Y572).
T1 construct: purchased DiscoverX (KINOMEscan service); host or cells: E. coli BL21-derived host (T7 phage) or HEK-293
T1 sequence (Q9Y572 whole entry): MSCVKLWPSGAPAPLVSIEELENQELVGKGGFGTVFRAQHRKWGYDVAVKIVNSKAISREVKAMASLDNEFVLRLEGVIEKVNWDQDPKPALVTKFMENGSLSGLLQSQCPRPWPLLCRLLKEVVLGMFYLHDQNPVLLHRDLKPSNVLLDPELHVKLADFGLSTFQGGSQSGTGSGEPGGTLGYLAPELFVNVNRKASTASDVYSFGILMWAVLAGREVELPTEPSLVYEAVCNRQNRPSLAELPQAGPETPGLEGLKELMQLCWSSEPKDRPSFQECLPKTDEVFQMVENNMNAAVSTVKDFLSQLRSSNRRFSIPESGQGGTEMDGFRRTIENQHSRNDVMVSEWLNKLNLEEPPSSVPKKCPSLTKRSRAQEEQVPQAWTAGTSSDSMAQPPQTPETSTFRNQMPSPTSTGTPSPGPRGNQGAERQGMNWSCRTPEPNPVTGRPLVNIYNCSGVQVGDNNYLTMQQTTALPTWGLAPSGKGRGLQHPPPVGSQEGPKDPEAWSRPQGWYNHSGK
Kind of test: KINOMEscan binding affinity assay, RIP3. The settings on record: equilibrium dissociation constant. The source says: (§4) The Hill Slope was set to −1.

Test [1] has as its system U937 human histiocytic leukemia cell line. Kind of test: Cellular assay: inhibition of TSQ induced necroptosis, 384 well plate format. Particulars: U-937, U937 cells, TSQ cocktail (TNF, Smac mimetic, Q-VD-OPh), 48 hours, CellTitre-Glo, read-out: Inhibition of TSQ-induced necroptosis (IC50 cell-based assay). The procedure: Cellular Assay: Screening Compounds for Inhibition of TSQ Induced Necroptosis, 384 Well Plate Format.
as §1
Cell Concentration (cells/well): Final cell density is 20000 cells per well.
Cell growth medium: HT-RPMI medium+7.4% Fetal Bovine Serum (FBS). Cells are cultured in Corning 150 cm^2 tissue culture flasks with vented caps at 37° C./5% CO2.
Incubation: Plates were incubated at 37° C./5% CO2 in a humidified incubator for 48 hours following addition of compounds and death stimuli (TSQ cocktail).
Compound concentration: 36 μM starting concentration, 1:3 dilution, 10 point
DMSO final concentration (% v/v): 0.3%.
Compounds in TSQ cocktail (T: TNF; S: Smac mimetic; Q: Q-VD-OPh) and their final concentrations:
hTNF-Fc (100 ng/ml)—produced by standard procedures as shown in Bossen et al., J Biol Chem, 2006, 281(20), 13964-13971.
Compound A (500 nM)—Smac mimetic, Tetralogic and SYNthesis med chem Q-VD-OPh (10 μM)—MP Biomedicals
as §2
Percent viability was calculated for each compound according to equation (2):
% viability=100×((RawData−NSA)/(TA−NSA) (2)
wherein RawData is the readout of any cell containing a compound of the invention TA is the total activity provided by the luminescence readout from DMSO only wells (columns 2 and 24)=100% viability NSA is the non-specific activity provided by DMSO+TSQ wells (columns 1 and 23)=0% viability
as §3
Analysis: Data was loaded into Dotmatics™ and visualised using the Tibco® Spotfire™ software. points titration curve were fitted with the 4 parameter logistic nonlinear regression model and the IC50 reported reflect the inflection point of the curve for curve fitting.
Assay involving the TSQ cocktail (T: TNF; S: Smac mimetic; Q: Q-VD-OPh): TSQ treatment ensures that cells specifically undergo necroptotic cell death. TNF activates the TNF receptor, Smac mimetic directs the signal away from proinflammatory signaling and toward the RIP1/RIP3-mediated cell death pathways, and Q-VD-OPh ensures that the apoptotic response is blocked leaving only the programmed necrosis response. The compounds' activity (solution in DMSO) tested in this TSQ-induced assay was evaluated by determining the number of viable cells in culture by measuring the amount of ATP present as measured by CelltiterGlo.

A further test addresses T2, RIP1 (Homo sapiens, UniProt Q13546).
T2 construct: purchased DiscoverX (KINOMEscan service); host or cells: E. coli BL21-derived host (T7 phage) or HEK-293
T2 sequence (Q13546 1-671): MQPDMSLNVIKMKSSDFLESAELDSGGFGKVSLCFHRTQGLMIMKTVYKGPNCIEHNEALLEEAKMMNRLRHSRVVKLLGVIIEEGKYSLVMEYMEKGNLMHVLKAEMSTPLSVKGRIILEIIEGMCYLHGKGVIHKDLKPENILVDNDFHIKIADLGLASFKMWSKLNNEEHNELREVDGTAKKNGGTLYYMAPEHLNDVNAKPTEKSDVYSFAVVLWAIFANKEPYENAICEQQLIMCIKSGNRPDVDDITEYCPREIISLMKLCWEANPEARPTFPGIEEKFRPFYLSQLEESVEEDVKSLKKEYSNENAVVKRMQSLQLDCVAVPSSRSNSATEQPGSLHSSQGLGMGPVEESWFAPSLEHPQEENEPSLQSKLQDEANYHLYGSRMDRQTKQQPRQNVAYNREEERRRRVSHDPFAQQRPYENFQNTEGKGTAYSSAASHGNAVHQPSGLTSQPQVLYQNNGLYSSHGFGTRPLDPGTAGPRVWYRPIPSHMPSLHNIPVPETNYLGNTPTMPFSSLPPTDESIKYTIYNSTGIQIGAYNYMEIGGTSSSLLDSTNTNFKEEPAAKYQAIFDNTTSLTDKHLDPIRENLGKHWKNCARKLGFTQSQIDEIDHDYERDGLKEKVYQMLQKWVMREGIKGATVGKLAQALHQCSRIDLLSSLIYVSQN
As to the kind of experiment: KINOMEscan binding affinity assay, RIP1. Particulars: equilibrium dissociation constant.
Source text: as §4

For another test, the target named is T3, MLKL (full length) (Homo sapiens, UniProt Q8NB16).
T3 construct: purchased DiscoverX (KINOMEscan service); host or cells: E. coli BL21-derived host (T7 phage) or HEK-293
T3 sequence (Q8NB16 1-471): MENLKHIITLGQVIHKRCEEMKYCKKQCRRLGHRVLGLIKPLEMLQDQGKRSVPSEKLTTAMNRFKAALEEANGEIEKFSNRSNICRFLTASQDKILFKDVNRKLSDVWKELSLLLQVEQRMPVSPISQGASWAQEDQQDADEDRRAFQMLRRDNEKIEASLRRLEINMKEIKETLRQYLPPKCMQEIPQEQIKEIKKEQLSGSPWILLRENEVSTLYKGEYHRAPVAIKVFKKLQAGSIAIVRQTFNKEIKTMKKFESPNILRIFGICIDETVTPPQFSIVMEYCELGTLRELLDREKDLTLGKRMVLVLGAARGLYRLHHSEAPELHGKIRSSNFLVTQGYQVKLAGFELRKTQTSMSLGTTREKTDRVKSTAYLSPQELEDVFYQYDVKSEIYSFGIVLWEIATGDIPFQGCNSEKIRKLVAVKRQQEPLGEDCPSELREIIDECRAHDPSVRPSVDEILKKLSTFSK
As to the kind of experiment: KINOMEscan binding affinity assay, MLKL. Particulars: equilibrium dissociation constant.
Source text: as §4

Consider `COc1cc(Nc2[nH]nc(-c3ccc(NC(=O)N4CCCC4c4ccccc4)cc3)c2C(N)=O)ccn1` (centres unmarked) [Compound 58, 5-((2-methoxypyridin-4-yl)amino)-3-(4-(2-phenylpyrrolidine-1-carboxamido)phenyl)-1H-pyrazole-4-carboxamide], for which the IC50 (in the test with U937 cells; in test [1]) was > 1 µM throughout. The values for the Kd at RIP3, at RIP1 and at MLKL (full length) were > 1 µM, > 1 µM and 0.1 to 1 µM, respectively.
